In article PMC7377239, “Cardiovascular Effects of Polychlorinated Biphenyls and Their Major Metabolites” (Environmental Health Perspectives, 2020):
Where two headings read alike, the source gives them in different places.

How the values were obtained:
HUVECs = experiment: High-content imaging cytotoxicity in HUVECs, 24 h; type: cell-based, human; details: for minimal effective concentration / viability at 0.01 µM / activity at 0.01 µM / activity at 0.1 µM / viability at 1 µM / activity at 1 µM / viability at 10 µM / activity at 10 µM / viability at 100 µM / activity at 100 µM: Homo sapiens, HUVEC, 24 h; for viability at 0.01 µM / activity at 0.01 µM: concentration 0.01 µM; for viability at 1 µM / activity at 1 µM: concentration 1.00 µM; for viability at 10 µM / activity at 10 µM: concentration 10.00 µM; for viability at 100 µM / activity at 100 µM: concentration 100.00 µM
How it was run: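 Point-of-departure values derive from four-parameter logistic fits of vehicle-normalized imaging phenotypes (Hoechst 33342, MitoTracker Orange, calcein AM). The fits follow 24 h exposure of HUVEC monolayers at 37°C and 5% CO2, with a top tested concentration of 100μM.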

[1] = tested on: iCell cardiomyocytes (human iPSC-derived cardiomyocytes); experiment: High-content imaging of cytotoxicity and mitochondrial integrity in iPSC-CMs; type: cell-based
How it was run: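 Human iPSC-derived cardiomyocytes were seeded on gelatin-coated 384-well plates at 5,000 cells per well and maintained for 12 d. Test chemicals were added as 10μL of 5× solutions to final concentrations of 0.01 to 100μM. Cells were stained with Hoechst 33342 and MitoTracker™ Orange, fixed in formaldehyde, and imaged by confocal high-content microscopy at 10× magnification.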

[2] = HUVECs, 24 hr, 0.00 µM = 100.00, read-out: huvec.cyto.24hr
[3] = HUVECs, 24 hr, 0.00 µM = 100.00, read-out: huvec.mito.24hr
[4] = HUVECs, 24 hr, 0.00 µM = 100.00, read-out: huvec.mitoint.24hr
[5] = HUVECs, 24 hr, 0.00 µM = 100.00, read-out: huvec.nma.24hr
[6] = HUVECs, 24 hrs, 0.00 µM = 100.00, read-out: huvec.tc.24hrs
[7] = 100.00 µM, 90min, 0.00 µM = 100.00
[8] = Homo sapiens, Cardiomyocyte, 1.5 h, 90min, 0.00 µM = 100.00, read-out: cm.cam.90min
[9] = Homo sapiens, Cardiomyocyte, 1.5 h, 90min, 0.00 µM = 100.00, read-out: cm.mii.90min
[10] = Homo sapiens, Cardiomyocyte, 1.5 h, 90min, 0.00 µM = 100.00, read-out: cm.mito.90min
[11] = Homo sapiens, Cardiomyocyte, 1.5 h, 90min, 0.00 µM = 100.00, read-out: cm.tc.90min
[12] = Homo sapiens, Cardiomyocyte, 24 h, 24hrs, 0.00 µM = 100.00, read-out: cm.cam.24hrs
[13] = Homo sapiens, Cardiomyocyte, 24 h, 24hrs, 0.00 µM = 100.00, read-out: cm.mii.24hrs
[14] = Homo sapiens, Cardiomyocyte, 24 h, 24hrs, 0.00 µM = 100.00, read-out: cm.mito.24hrs
[15] = Homo sapiens, Cardiomyocyte, 24 h, 24hrs, 0.00 µM = 100.00, read-out: cm.tc.24hrs

`Clc1ccc(Cl)c(-c2c(Cl)ccc(Cl)c2Cl)c1Cl` [(+)-PCB 136, 2,2′,3,3′,6,6′-hexachlorobiphenyl] showed a huvec.mito.24hr (HUVECs; HUVECs, 24 hr, concentration 0.10 µM, 0.00 µM = 100.00) of 96.64, a minimal effective concentration (HUVECs; mitoint, 24 hr, read-out: POD huvec.mitoint.24hr) of 0.64 µM and a minimal effective concentration (HUVECs; nma, 24 hr, read-out: POD huvec.nma.24hr) of 1.82 µM. It also gave a viability at 0.01 µM (HUVECs; [2]) of 89.2%, an activity at 0.01 µM (HUVECs; [3]) of 87.1% and an activity at 0.01 µM (HUVECs; [4]) of 81.7%. The activity at 0.01 µM (HUVECs; [5]) was 95.8%, the activity at 0.1 µM (HUVECs; HUVECs, 24 hr, concentration 0.10 µM, 0.00 µM = 100.00, read-out: huvec.mitoint.24hr) was 80.9% and the activity at 0.1 µM (HUVECs; HUVECs, 24 hr, concentration 0.10 µM, 0.00 µM = 100.00, read-out: huvec.nma.24hr) was 93.4%. The viability at 1 µM (HUVECs; [2]) was 81.4%, the activity at 1 µM (HUVECs; [3]) was 80.3% and the activity at 1 µM (HUVECs; [4]) was 78.8%. For the same compound, the activity at 1 µM (HUVECs; [5]) was 99.5%, the viability at 10 µM (HUVECs; [2]) was 65.2% and the activity at 10 µM (HUVECs; [3]) was 30.4%. For the same compound, the activity at 10 µM (HUVECs; [4]) was 9.57%, the activity at 10 µM (HUVECs; [5]) was 50.8% and the viability at 100 µM (HUVECs; [2]) was 40%. It also gave an activity at 100 µM (HUVECs; [3]) of 25.7%, an activity at 100 µM (HUVECs; [4]) of 14.8% and an activity at 100 µM (HUVECs; [5]) of 75.7%. For the same compound, the minimal effective concentration (HUVECs; HUVECs, 24 hr, MAX 100.00, read-out: huvec.mitoint.24hr POD) was 0.64 µM, the minimal effective concentration (HUVECs; HUVECs, 24 hr, MAX 100.00, read-out: huvec.nma.24hr POD) was 1.82 µM and the viability at 0.01 µM (HUVECs; [6]) was 89.2%. The viability at 1 µM (HUVECs; [6]) was 81.4%, the viability at 10 µM (HUVECs; [6]) was 65.3% and the viability at 100 µM (HUVECs; [6]) was 40.2%. For the same compound, the cm.mii.24hrs ([1]; 0.10 µM, 24hrs, 0.00 µM = 100.00) was 104.89, the cm.mito.24hrs ([1]; 10.00 µM, 24hrs, 0.00 µM = 100.00) was 66.95 and the cm.mii.90min [1, 7] was 30.66. For the same compound, the cm.mito.90min [1, 7] was 0.83, the cm.mii.24hrs ([1]; 100.00 µM, 24hrs, 0.00 µM = 100.00) was 35.96 and the viability at 0.01 µM [1, 8] was 94%. It also gave an activity at 0.01 µM [1, 9] of 115%, an activity at 0.01 µM [1, 10] of 94.1% and a viability at 0.01 µM [1, 11] of 94.5%. The viability at 0.1 µM ([1]; Homo sapiens, Cardiomyocyte, 1.5 h, 0.10 µM, 90min, 0.00 µM = 100.00, read-out: cm.cam.90min) was 100%, the activity at 0.1 µM ([1]; Homo sapiens, Cardiomyocyte, 1.5 h, 0.10 µM, 90min, 0.00 µM = 100.00, read-out: cm.mii.90min) was 108% and the activity at 0.1 µM ([1]; Homo sapiens, Cardiomyocyte, 1.5 h, 0.10 µM, 90min, 0.00 µM = 100.00, read-out: cm.mito.90min) was 100%. It also gave a viability at 0.1 µM ([1]; Homo sapiens, Cardiomyocyte, 1.5 h, 0.10 µM, 90min, 0.00 µM = 100.00, read-out: cm.tc.90min) of 100%, a viability at 1 µM [1, 8] of 97.7% and an activity at 1 µM [1, 9] of 103%. The activity at 1 µM [1, 10] was 97.5%, the viability at 1 µM [1, 11] was 97.8% and the viability at 10 µM ([1]; Homo sapiens, Cardiomyocyte, 1.5 h, 10.00 µM, 90min, 0.00 µM = 100.00, read-out: cm.cam.90min) was 101%. It also gave an activity at 10 µM ([1]; Homo sapiens, Cardiomyocyte, 1.5 h, 10.00 µM, 90min, 0.00 µM = 100.00, read-out: cm.mii.90min) of 101%, an activity at 10 µM ([1]; Homo sapiens, Cardiomyocyte, 1.5 h, 10.00 µM, 90min, 0.00 µM = 100.00, read-out: cm.mito.90min) of 102% and a viability at 10 µM ([1]; Homo sapiens, Cardiomyocyte, 1.5 h, 10.00 µM, 90min, 0.00 µM = 100.00, read-out: cm.tc.90min) of 102%. It also gave a viability at 0.01 µM [1, 12] of 92.8%, an activity at 0.01 µM [1, 13] of 90.7% and an activity at 0.01 µM [1, 14] of 95.4%. The viability at 0.01 µM [1, 15] was 95.4%, the viability at 0.1 µM ([1]; Homo sapiens, Cardiomyocyte, 24 h, 0.10 µM, 24hrs, 0.00 µM = 100.00, read-out: cm.cam.24hrs) was 96.6% and the activity at 0.1 µM ([1]; Homo sapiens, Cardiomyocyte, 24 h, 0.10 µM, 24hrs, 0.00 µM = 100.00, read-out: cm.mito.24hrs) was 98.1%. For the same compound, the viability at 0.1 µM ([1]; Homo sapiens, Cardiomyocyte, 24 h, 0.10 µM, 24hrs, 0.00 µM = 100.00, read-out: cm.tc.24hrs) was 96.6%, the viability at 1 µM [1, 12] was 95.6% and the activity at 1 µM [1, 13] was 86.4%. The activity at 1 µM [1, 14] was 97%, the viability at 1 µM [1, 15] was 96.3% and the activity at 10 µM ([1]; Homo sapiens, Cardiomyocyte, 24 h, 10.00 µM, 24hrs, 0.00 µM = 100.00, read-out: cm.mii.24hrs) was 99.9%. For the same compound, the viability at 100 µM ([1]; Homo sapiens, Cardiomyocyte, 24 h, 100.00 µM, 24hrs, 0.00 µM = 100.00, read-out: cm.cam.24hrs) was 1.96%, the activity at 100 µM ([1]; Homo sapiens, Cardiomyocyte, 24 h, 100.00 µM, 24hrs, 0.00 µM = 100.00, read-out: cm.mito.24hrs) was 1.15% and the viability at 100 µM ([1]; Homo sapiens, Cardiomyocyte, 24 h, 100.00 µM, 24hrs, 0.00 µM = 100.00, read-out: cm.tc.24hrs) was 2.72%. The minimal effective concentration ([1]; Homo sapiens, Cardiomyocyte, 24 h, cardiomyocytes (cm), mii, 24 hrs, read-out: POD cm.mii.24hrs) was 50.8 µM and the minimal effective concentration ([1]; Homo sapiens, Cardiomyocyte, 24 h, read-out: cm.mii.24hrs POD) was 50.8 µM.
